Source: patent publication US11814371B2, “Heterocyclic compound” (MEDSHINE DISCOVERY INC., priority 2020, dated 2023)

Assays:
[1] = molecular target: T1, recombinant human plasma kallikrein (Human PKal) (Homo sapiens, UniProt P03952); experiment: Inhibitory effect of test compounds on plasma kallikrein (PKal), fluorogenic substrate Z-FR-AMC; type: biochemical; conditions: 10 µM Z-FR-AMC, 10 min pre-incubation
T1 construct: Gly20-Ala638 derived from NS0- with a 60-His appendage at the C-terminus; His tag ('60-His' [sic]) (C); purchased R&D Systems 2497-SE; host or cells: mouse myeloma cell line NS0
Procedure: 1. PKal reaction buffer: 25 mM Tris-HCl (trometamol-HCl), pH 8.0, 100 mM NaCl, […], 0.01 % Brij35 (polyoxyethylene lauryl ether), and 1 % DMSO (final concentration).
2. Enzyme: PKal (R&D Systems Cat# 2497-SE), recombinant human plasma kallikrein expressed in a mouse myeloma cell line, Gly20-Ala638 derived from NS0- with a 60-His appendage at the C-terminus, MW=70 kDa. Activation of the enzyme: (1) rhPKal was diluted to 200 µg/mL activation buffer (100 mM Tris, 10 mM CaCl2, 150 mM NaCl, pH 7.5 (TCN)); (2) thermolysin was diluted to 20 µg/mL activation buffer; (3) rhPKal (200 µg/mL) and thermolysin (20 µg/mL) were mixed in equal volumes; (4) the mixture was incubated at 37° C. for 30 min; (5) then the reactions was stopped with 50 µM EDTA (ethylenediaminetetraacetic acid).
3. Substrate (Enzo Cat# P-139): 10 µM Z-FR-AMC (AMC: 7-amino-4-methylcoumarin).
4. Detection: EnVision (PE), Ex/Em 355/460 nm.
5. Reaction process: (1) The specified enzymes and substrates were prepared in freshly prepared activation buffer; (2) the enzyme solution was injected into the reaction hole; (3) the DMSO solution of the test compound was injected into the reaction mixture, and controlled within the nanoliter range using acoustic technology (Echo 550, LabCyte Inc. Sunnyvale, CA); (4) after 10 min of pre-incubation, the substrate solution was injected into the reaction hole to start the reaction; (5) the activity of the enzyme could be indicated by the increase of the fluorescence signal of the fluorescent labeled peptide substrate, which was monitored every 5 min and lasted for 120 min at room temperature; (6) data analysis: the slope* (fluorescence signal/time) of the straight line was measured, then the slope could be calculated by excel and the curve could be fitted by Prism software.

[2] = Pharmacokinetic test in rat eyes after intragastric administration (eye tissue and plasma, LC-MS/MS); type: in vivo, male SD rats; conditions: intragastric 75 mg/kg
Procedure: Male SD rats were used as test animals, and LC-MS/MS method was used to determine the drug concentrations in eye tissues at different times after intragastric administration of the test compound. The pharmacokinetic behavior of the compounds in the eyes of rats after intragastric administration was studied, and the pharmacokinetic characteristics were evaluated.
2.2 Test animals: Six healthy adult male rats were divided into three groups with 4 eyes in each group. Animals were purchased from Beijing Vital River Laboratory Animal Technology Co., Ltd.
2.3 Drug preparation: An appropriate amount of sample was weighed, and an appropriate amount of DMSO and labrasol were added in sequence according to the volume ratio of 10:90, then the mixture was stirred and sonicated to reach a clear state of 15 mg/mL for intragastric administration.
2.4 Administration: 6 male SD rats were divided into 3 groups, after fasting for one night, the intragastric administration group was administered with a volume of 5 mL/kg and a dose of 75 mg/kg.
Male rats were euthanized at 1, 4 and 8 hours after intragastric administration of compound 1, and eye tissues from 2 eyes of each rat were combined and the concentration of compound in the retina and choroid/sclera was measured.
The LC-MS/MS method was used to determine the content of the test compound in the eye tissues of rats after intragastric administration. The linear range of the method was from 2.00 to 6000 nmol/L; the eye tissue concentration data are presented in Table 3, in which each eye tissue concentration data was obtained from the combined left and right eyes of 2 rats.

T1 sequence (P03952 20-638): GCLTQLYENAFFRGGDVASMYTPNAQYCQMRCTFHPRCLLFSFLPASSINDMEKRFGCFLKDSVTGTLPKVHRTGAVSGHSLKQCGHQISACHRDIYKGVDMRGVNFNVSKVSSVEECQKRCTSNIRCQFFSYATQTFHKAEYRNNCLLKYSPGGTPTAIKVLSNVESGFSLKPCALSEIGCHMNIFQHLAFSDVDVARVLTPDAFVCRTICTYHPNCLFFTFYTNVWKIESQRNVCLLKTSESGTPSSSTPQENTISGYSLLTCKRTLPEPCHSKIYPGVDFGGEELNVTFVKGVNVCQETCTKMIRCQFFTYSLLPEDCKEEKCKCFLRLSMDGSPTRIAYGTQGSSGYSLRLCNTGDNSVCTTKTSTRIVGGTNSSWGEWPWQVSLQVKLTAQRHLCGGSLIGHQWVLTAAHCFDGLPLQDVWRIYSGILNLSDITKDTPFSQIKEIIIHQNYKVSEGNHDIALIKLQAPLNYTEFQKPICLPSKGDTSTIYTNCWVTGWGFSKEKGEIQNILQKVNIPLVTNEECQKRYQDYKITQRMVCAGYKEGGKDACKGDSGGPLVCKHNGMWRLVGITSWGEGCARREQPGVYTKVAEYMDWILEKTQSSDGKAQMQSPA

SMILES	IC50 [1] [nM]	AUC0-8h Choroid and sclera [2] [nmol·h/kg]	Concentration of compound in Choroid and sclera ([2]; 1 hour) [nmol/kg]	Concentration of compound in Retina ([2]; 1 hour) [nmol/kg]	Concentration of compound in Choroid and sclera ([2]; 4 hours) [nmol/kg]	Concentration of compound in Retina ([2]; 4 hours) [nmol/kg]	Concentration of compound in Choroid and sclera ([2]; 8 hours) [nmol/kg]	concentration at 1 h ([2]; male, SD, plasma, oral, 1 hour, read-out: Concentration of compound in Plasma) [µM]	concentration at 4 h ([2]; male, SD, plasma, oral, 4 hours, read-out: Concentration of compound in Plasma) [µM]	concentration at 8 h ([2]; male, SD, plasma, oral, 8 hours, read-out: Concentration of compound in Plasma) [µM]	AUC(0-t) ([2]; male, SD, plasma, po, read-out: AUC0-8h Plasma) [µM·h]
COc1ccc(F)c(CNC(=O)c2cn(Cc3ccc(Cn4cc(F)ccc4=O)cc3)nc2C2COC2)c1F [Compound 1]	0.139	2803	640	90.8	450	147	82	3.69	6.44	0.729	22
COc1ccc(F)c(CNC(=O)c2cn(Cc3ccc(Cn4cc(F)ccc4=O)c(F)c3)nc2C2COC2)c1F [Compound 8]	0.465										
